# Reference: patent US5484911A, “Nucleoside 5'-diphosphate conjugates of ether lipids” (Health Research, Inc., priority 1993, dated 1996)
# Like-named read-outs stand apart in the source and are kept apart here.
# Assays:
# [1] = system: L1210 lymphoid leukemia; assay: In vivo test against i.p. implanted L1210 lymphoid leukemia in DBA/2J mice
# Description: AZTDP-DL-PTBA was also tested for in vivo cytotoxicity against i.p. implanted L1210 lymphoid leukemia (10^6 cells) in DBA/2J mice.
# [2] = Solubility in water; format: physicochemical
# Description: Solubility of AZTDP-DL-PTBA in water is only 0.58 mM. Thus, the compounds in the present invention were formulated in a micellar solution by sonication for the biological testings such as anti-HIV screenings. The compound was suspended in sterile water and then sonicated using a Branson Sonifier Cell Disruptor 200 at control 2-3 for 5 min (temp 20°-60° C.). The solution was sterile-filtered through a 0.22 μm membrane filter into a sterile receiving container under a laminar flow cabinet. The compound was existed as micelles and the micellar solution was stored in a refrigerator.
# [3] = in vivo; set-up: species or system Female NIH-Swiss mice; settings: mouse, ip, 394 mg/kg
# Description: FIG. 7. Mouse serum concentration of AZT following administration of AZT or AZTDP-DL-PTBA Female NIH-Swiss mice weighing 25-30 g were administered i.p. with AZT (100 mg/kg) or AZTDP-DL-PTBA (394 mg/kg, equivalent to 100 mg/kg AZT). Three mice were sacrificed at the designated time (up to 24 hr) and AZT in the serum was analyzed by a HPLC method.
# Female NIH-Swiss mice weighing 25-30 g were administered intraperitoneally (i.p.) with 394 mg/kg of AZTDP-DL-PTBA (equivalent to 100 mg/kg AZT). Three mice were sacrificed at the designated time (up to 24 hours) and AZT in the serum was analyzed by an HPLC method. […] The intact conjugate level in the serum was unable to be checked by the HPLC method.
# [4] = system: HIV-1; assay: microbe, parasite or virus in culture; format: cell-based
# Source text: (§1) FIG. 3. Anti-HIV activity of AZTDP-DL-PTBA from the National Cancer Institute Developmental Therapeutics Program In-Vitro Testing Results; NSC 648540-S/1; Plate 5440; Lab 9N; SSPL:129N; Primary Screen Assay; Test Date, Jan. 21, 1992; Solubility Ind.: 1; Report Date, Apr. 27, 1992; Cell Line, CEM-IW; Solvent: Saline<0.9% (MEDIA).
# as §1, with “4.” for “3.”, “AZddUDP-DL-PTBA” for “AZTDP-DL-PTBA”, “NSC: 648541-T/1;” for “NSC 648540-S/1;”, “5466;” for “5440;”, “SSPL: 129N;” for “SSPL:129N;”, “Line:” for “Line,”
# (§2) FIG. 5. Anti-HIV activity of ddCDP-DL-PTBA from the National Cancer Institute Developmental Therapeutic Program In-Vitro Testing Results; NSC: D- 652872-A/1; Plate 24; Lab 9N; Primary Screen Assay; Test Date, Jul. 23, 1992; Solubility Ind.: 1; Report Date: Aug. 7, 1992; Cell Line: CEM-IW; Solvent: Saline<0.9% (MEDIA).
# (§3) FIG. 6. Anti-HIV activity of AZTDP-DL-PMA from the National Cancer Institute Developmental Therapeutics Program In-Vitro Testing Results; NSC: D- 652873-C/1; Plate 24; Lab 9N; SSPL: 129N; Primary Screen Assay; Test Date, Jul. 23, 1992; Solubility Ind.: 1; Report Date, Sep. 11, 1992; Cell Line: CEM-IW; Solvent: Saline<0.9% (MEDIA).
# Anti-HIV evaluation for the compounds was performed at the National Cancer Institute, National Institute of Health and is presented in FIGS. 3-6.
# (§4) The procedure is designed to detect agents acting at any stage of the virus reproductive cycle (Weislow, et al., J. Natl. Cancer Inst. 81, 577, 1989). The assay basically involves the killing of T4 lymphocytes by HIV. Small amounts of HIV are added to cells, and a complete cycle of virus reproduction is necessary to obtain the required cell killing. Agents that interact with virions, cells, or virus gene-products to interfere with viral activities will protect cells from cytolysis. Compounds that degenerate or are rapidly metabolized in the culture conditions may not show activity in this screen. All tests are compared with at least one positive (e.g., AZT-treated) control done at the same time under identical conditions.
# (§5) Compound was dissolved in DMSO then diluted 1:100 in cell culture medium before preparing serial half-log10 dilutions. T4 lymphocytes (CEM cell line) were added and after a brief interval HIV-1 was added, resulting in a 1:200 final dilution of the compound. Uninfected cells with the compound served as a toxicity control, and infected and uninfected without the compound served as basic controls. Cultures were incubated at 37° C. in a 5% CO2 atmosphere for 6 days. The tetrazolium salt, XTT, was added to the wells, and cultures were incubated to allow formazan color development by viable cells. Individual wells were analyzed spectrophotometrically to quantitate formazan production, and in addition were viewed microscopically for detection of viable cells and confirmation of protective activity. Drug-treated virus-infected cells were compared with drug-treated noninfected cells and with other appropriate controls (untreated infected and untreated noninfected cells, drug-containing wells without cells, etc.) on the same plate. Data were reviewed in comparison with other tests done at the same time and a determination about activity was made.
# [5] = Cytotoxicity to uninfected CEM cells (toxicity control of the anti-HIV assay); format: cell-based; settings: human
# Source text: as §1
# as §1, with “4.” for “3.”, “AZddUDP-DL-PTBA” for “AZTDP-DL-PTBA”, “NSC: 648541-T/1;” for “NSC 648540-S/1;”, “5466;” for “5440;”, “SSPL: 129N;” for “SSPL:129N;”, “Line:” for “Line,”
# as §2, §3, §4, §5
compound,measurement,setting,value
CCCCCCCCCCCCCCCCCCSCC(COP(=O)(O)OP(=O)(O)OC[C@H]1O[C@@H](n2cc(C)c(=O)[nH]c2=O)C[C@@H]1N=[N+]=[N-])OC(=O)CCCCCCCCCCCCCCC (mixture of isomers) [AZTDP-DL-PTBA],% ILS (increase in life span),"[1]; 100-300 mg (95-285 μmole)/kg, L1210 10^6 cells i.p.",0%
same,Toxicity,"[1]; 100-300 mg/kg, leukemic mice",Toxicity as reflected in weight loss was observed
same,solubility,[2],580 µM
same,half-life,[3],7.85 h
same,concentration at which protection was lost,[4]; HIV-infected CEM cells,180 µM
same,viability at 0.58 µM,"[4]; Human immunodeficiency virus 1, CCRF-CEM, at as low as 5.80×10^-7 M, read-out: protected HIV-infected CEM cells",80%
same,viability at 180 µM,"[4]; Human immunodeficiency virus 1, CCRF-CEM, dose 1.80 × 10^-4 Molar (Tables 1, 2), read-out: INFECTED RESPONSE Percent of Control",1.53%
same,viability at 18 µM,"[4]; Human immunodeficiency virus 1, CCRF-CEM, dose 1.80 × 10^-5 Molar (Tables 1, 2), read-out: INFECTED RESPONSE Percent of Control",110%
same,viability at 1.8 µM,"[4]; Human immunodeficiency virus 1, CCRF-CEM, dose 1.80 × 10^-6 Molar (Tables 1, 2), read-out: INFECTED RESPONSE Percent of Control",95.6%
same,viability at 580 µM,"[4]; Human immunodeficiency virus 1, CCRF-CEM, dose 5.80 × 10^-4 Molar (Tables 1, 2), read-out: INFECTED RESPONSE Percent of Control",0.57%
same,viability at 58 µM,"[4]; Human immunodeficiency virus 1, CCRF-CEM, dose 5.80 × 10^-5 Molar (Tables 1, 2), read-out: INFECTED RESPONSE Percent of Control",122%
same,viability at 5.8 µM,"[4]; Human immunodeficiency virus 1, CCRF-CEM, dose 5.80 × 10^-6 Molar (Tables 1, 2), read-out: INFECTED RESPONSE Percent of Control",98.1%
same,viability at 0.58 µM,"[4]; Human immunodeficiency virus 1, CCRF-CEM, dose 5.80 × 10^-7 Molar (Tables 1, 2), read-out: INFECTED RESPONSE Percent of Control",81.6%
same,Conclusion,"[4]; NCI screen conclusion, Tables 1-4",CONFIRMED ACTIVE
same,conclusion / reported as anti-HIV drug,[4]; NCI screening results,active
same,in vitro anti-HIV activity,[4]; result in words,strong in vitro anti-HIV activity
same,MCC,"[5]; cem cells, read-out: concentration at which the compound started to show the cytotoxicity",100 µM
same,viability at 180 µM,"[5]; uninfected cem cells, dose 1.80 × 10^-4 Molar (Tables 1, 2), read-out: UNINFECTED RESPONSE Percent of Control",0.9%
same,viability at 18 µM,"[5]; uninfected cem cells, dose 1.80 × 10^-5 Molar (Tables 1, 2), read-out: UNINFECTED RESPONSE Percent of Control",106%
same,viability at 1.8 µM,"[5]; uninfected cem cells, dose 1.80 × 10^-6 Molar (Tables 1, 2), read-out: UNINFECTED RESPONSE Percent of Control",98.7%
same,viability at 580 µM,"[5]; uninfected cem cells, dose 5.80 × 10^-4 Molar (Tables 1, 2), read-out: UNINFECTED RESPONSE Percent of Control",-0.54%
same,viability at 58 µM,"[5]; uninfected cem cells, dose 5.80 × 10^-5 Molar (Tables 1, 2), read-out: UNINFECTED RESPONSE Percent of Control",113%
same,viability at 5.8 µM,"[5]; uninfected cem cells, dose 5.80 × 10^-6 Molar (Tables 1, 2), read-out: UNINFECTED RESPONSE Percent of Control",95.9%
same,viability at 0.58 µM,"[5]; uninfected cem cells, dose 5.80 × 10^-7 Molar (Tables 1, 2), read-out: UNINFECTED RESPONSE Percent of Control",97%
same,CC50,"[5]; CEM cells, read-out: cytotoxicity (IC50)",110 µM
same,CC50 at 144 h,"[5]; uninfected CEM-IW cells, 6 days, XTT, Tables 1-4, read-out: 1C50(Molar) (cytotoxicity)",110 µM
